Each block holds one compound with its values, some of them ahead of it.
Key:
[1] = Solubility in water and organic solvent (stated); conditions: for solubility in organic solvent: CD3Cl or CD2Cl2
[2] = UV monitoring of pz transfer from aqueous phase into chloroform, with and without NaCl; assay type: physicochemical; conditions: H2O layered over equivalent volume of CHCl3
Description: Relative rates of pz transfer from the aqueous phase into chloroform were assessed, with, and without NaCl, by UV monitoring as detailed in Figure S100. This involved layering a sample of H2O containing pyrazine over an equivalent volume of CHCl3 that contained no pz.

[3] = UV-vis quality control: catalyst in the aqueous phase after phase separation; assay type: physicochemical; conditions: UV spectrum 10 seconds after mixing, no signal seen
Description: A UV spectrum was recorded to monitor the amount of catalyst present in the aqueous phase 10 seconds after mixing. As detailed in Figure S98 no signal is seen which places an upper limit of 1.5×10^−6 mol dm^−3 on the iridium concentration based on [Ir(H)2(IMes)(pz)3]Cl. The sample used mimicked that of 5.1.

Compound: Fc1cccnc1 [3-fluoropyridine]
- solubility in organic solvent [1]: highly soluble in organic solvent

Compound: Nc1ccncc1 [4-aminopyridine]
- solubility in water / D2O [1]: fully water soluble

Compound: c1cnccn1 [pyrazine]
- rate of transfer between the phases, effect of NaCl [2]: increase the rate of pz transfer between the phases
- relative partitioning between aqueous phase and chloroform, effect of NaCl [2]: unaffected by added NaCl

Next, values leading:

- solubility in water / D2O [1]: partially soluble in D2O phase
- solubility in organic solvent [1]: fully soluble in CD3Cl phase
Compound: [2H]c1cc([2H])c(C(=O)OC)cn1 [d2-methylnicotinate]

- solubility in water / D2O [1]: full water soluble
- solubility in organic solvent [1]: partially soluble in organic solvent
Compound: [2H]c1cc([2H])c(C(N)=O)cn1 [d2-nicotinamide]

- upper limit on iridium concentration in the aqueous phase [3]: ≤ 1.5×10^−6 mol dm^−3
Compound: [Ir(H)2(IMes)(pz)3]Cl

— patent publication US12350350B2, “Hyperpolarisation in aqueous media via sabre” (UNIVERSITY OF YORK, priority 2017, dated 2025)
